Patent US20230310293A1, “COOLING SENSATION COMPOSITIONS” (GIVAUDAN SA, priority 2020, published 2023)

Test: Solubility of non-natural cooling compounds in lactic acid
Format: physicochemical
Details: warmed to about 50° C. with gentle agitation for 1 hour per step, highest tested weight % that dissolved
Experimental: Into a 20ml vial 0.4 g of the respective non-natural cooling compound as indicated in Table 1 below have been added followed by the addition of 1.6 g lactic acid. The vial was warmed to about 50° C. with gentle agitation for 1 hour. If the respective non-natural cooling compound hasn’t dissolved, 2 g lactic acid was added (resulting in a composition comprising 10 weight % of a non-natural cooling compound), and again gentle agitated for an additional hour at about 50° C. If the non-natural cooling compound still hasn’t dissolved, 4 g of lactic acid was added (resulting in a composition comprising 5 weight % of anon-natural cooling compound), and again gentle agitated for an additional hour at about 50° C.
If the non-natural cooling compound still has not dissolved, the procedure above has been repeated, starting with 0.05 g of the non-natural cooling compound and 0.95 g of lactic acid. If still not dissolved, 1 g lactic acid was added (resulting in a composition comprising 2.5 weight % of a non-natural cooling compound). If still not dissolved further solvent was added.
If 0.4 g the non-natural cooling compound dissolved in 1.6 g lactic acid, the procedure above has been repeated, starting with 1 g of the non-natural cooling compound and 1 g lactic acid. If the respective non-natural cooling compound hasn’t dissolved, 0.5 g lactic acid was added (resulting in a composition comprising 40 weight % of a non-natural cooling compound), and again gentle agitated for an additional hour at about 50° C. If the non-natural cooling compound still hasn’t dissolved, 0.83 g of lactic acid was added (resulting in a composition comprising 30 weight % of anon-natural cooling compound), and again gentle agitated for an additional hour at about 50° C.

| Compound | Soluble solution (solubility of non-natural cooling compound in lactic acid) |
| --- | --- |
| C=CC(C)(C)C(=O)N1CCCCC1c1ncc(-c2ccc(C)cc2)[nH]1 (stereo not shown) [2,2-dimethyl-1-(2-(5-(p-tolyl)-1H-imidazol-2-yl)piperidin-1-yl)but-3-en-1-one] | 30 wt % |
| CCc1ccc(OCC(=O)N(Cc2cccs2)c2cc[nH]n2)cc1 [2-(4-ethylphenoxy)-N-(1H-pyrazol-3-yl)-N-(thiophen-2-ylmethyl)acetamide] | 5 wt% wt % |
| CSC(C)C(=O)N1CCCCC1c1ncc(-c2ccc(C)cc2)[nH]1 (stereo not shown) [2-(methylthio)-1-(2-(5-(p-tolyl)imidazol-2-yl)piperidin-1-yl)propan-1-one] | 50 wt % |
| CC1CCC(C(C)C)C(C(=O)NCCc2ccccn2)C1 (stereo not shown) [2-isopropyl-5-methyl-N-(2-(pyridin-2-yl)ethyl)cyclohexane-1-carboxamide] | 20 wt % |
| CC1CCC(C(C)C)C(OC(=O)C(C)O)C1 (stereo not shown) [2-isopropyl-5-methylcyclohexyl 2-hydroxypropanoate] | 20 wt% wt % |
| CNC(=O)C(C)(C(C)C)C(C)C [2-isopropyl-N,2,3-trimethylbutanamide] | 20 wt% wt % |
| CCC(C)C(=O)N1CCCCC1c1ncc(-c2ccc(C)cc2)[nH]1 (stereo not shown) [2-methyl-1-(2-(5-(p-tolyl)-1H-imidazol-2-yl)piperidin-1-yl)butan-1-one] | 50 wt % |
| CSC(C)(C)C(=O)N1CCCCC1c1ncc(-c2ccc(C)cc2)[nH]1 (stereo not shown) [2-methyl-2-(methylthio)-1-(2-(5-(p-tolyl)-1H-imidazol-2-yl)piperidin-1-yl)propan-1-one] | 40 wt % |
| Cc1ccc(OCC(=O)N(Cc2cccs2)c2ccn[nH]2)cc1 [N-(1H-pyrazol-3-yl)-N-(thiophen-2-ylmethyl)-2-(p-tolyloxy)acetamide] | 30 wt % |
| CC(C)C1CCC(C)(C)CC1C(=O)NCC(O)c1ccccc1 (stereo not shown) [N-(2-hydroxy-2-phenylethyl)-2-isopropyl-5,5-dimethylcyclohexane-1-carboxamide] | 5 wt% wt % |
| CC1CCC(C(C)C)C(C(=O)Nc2ccc(CC(N)=O)cc2)C1 (stereo not shown) [N-(4-(2-amino-2-oxoethyl)phenyl)-2-isopropyl-5-methylcyclohexane-1-carboxamide] | 2.5 wt% wt % |
| CCNC(=O)C1CC(C)CCC1C(C)C (stereo not shown) [N-Ethyl-p-menthane-3-carboxamide] | 10 wt% wt % |
| CCOC(=O)CNC(=O)C1CC(C)CCC1C(C)C (stereo not shown) [ethyl (2-isopropyl-5-methylcyclohexane-1-carbonyl)glycinate] | 20 wt% wt % |
